Test systems include MOLT-4; UO-31; UACC-62; Malme-3M; NCI-H23; M14; MDA-MB-435; 786-0; NCI-H460; CCRF-CEM; SNB-19; HL-60; HCT-15; SK-OV-3; SK-MEL-5; SF-268; U-251; SF-295; TK-10; SK-MEL-28.
Common to all, as to experiment: NCI anticancer screen, dose series, 48 h

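Cells were grown in 96-well plates and exposed to each compound for 48 hours at five concentrations; endpoints were interpolated linearly between bracketing concentrations, or set to the highest concentration if not reached. GI50 marks 50% less growth.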 Calls of active or inactive are those of the source. No stated cut-off is given here; in the data, active = GI50 up to about 1.1 µM and inactive = higher.

On to `O=C1c2cccc3cccc(c23)C2NCCCN12` (stereo not given), for which the GI50 with MOLT-4 was 47.3 µM (inactive); in the experiment with UO-31 it was 88.5 µM (inactive); in the experiment with UACC-62, > 100 µM (inactive); with Malme-3M it was > 100 µM (inactive); in the experiment on NCI-H23, > 100 µM (inactive); in the experiment with M14, > 100 µM (inactive). In addition, the GI50 in the experiment with MDA-MB-435 was > 100 µM (inactive); in the experiment with 786-0, > 100 µM (inactive); in the experiment with NCI-H460, > 100 µM (inactive); in the experiment on CCRF-CEM it was 37.7 µM (inactive); in the experiment on SNB-19, > 100 µM (inactive); in the experiment with HL-60 it was > 100 µM (inactive). The GI50 is greater than 100 µM in the experiment with HCT-15; > 100 µM (inactive) in the experiment on SK-OV-3; 78.2 µM (inactive) in the experiment on SK-MEL-5; > 100 µM (inactive) in the experiment with SF-268; > 100 µM (inactive) in the experiment on U-251; > 100 µM (inactive) in the experiment on SF-295. The GI50 in the experiment with TK-10 and with SK-MEL-28 was > 100 µM (inactive) each time.

Consider `COC(=O)CCCCC/C(=C\C(=O)C(Cl)(Cl)Cl)OC`, for which the GI50 is 16.7 µM (inactive) with MOLT-4; 84.5 µM (inactive) in the experiment on UO-31; 36 µM (inactive) with UACC-62; 21.1 µM (inactive) in the experiment with Malme-3M; 31.8 µM (inactive) with NCI-H23; 31.1 µM (inactive) in the experiment on M14. Further, the GI50 in the experiment with MDA-MB-435 is 22.9 µM (inactive); in the experiment on 786-0, 24.9 µM (inactive); in the experiment with NCI-H460, 28.3 µM (inactive); in the experiment with CCRF-CEM, 15.4 µM (inactive); in the experiment on SNB-19 it was 48.2 µM (inactive); with HL-60 it was 22.3 µM (inactive). The GI50 in the experiment on HCT-15 was 24.2 µM; with SK-OV-3, 61.4 µM (inactive); in the experiment with SK-MEL-5 it was 38.8 µM (inactive); in the experiment on SF-268, 24.4 µM (inactive); with U-251, 26.4 µM (inactive); in the experiment with SF-295 it was 43.3 µM (inactive). Moreover, the GI50 is 29.4 µM (inactive) in the experiment with TK-10 and 32.9 µM (inactive) in the experiment on SK-MEL-28.

Consider `C/C(=N/NC(=S)N1CCCCCC1)c1cccc(/C(C)=N\NC(=S)N2CCCCCC2)n1`, for which the GI50 was 2.43 µM (inactive) with MOLT-4; 1.37 µM (inactive) in the experiment on UO-31; 2.38 µM (inactive) in the experiment on UACC-62; 0.938 µM (active) in the experiment on Malme-3M; 2.31 µM (inactive) in the experiment with NCI-H23; 1.71 µM (inactive) with M14. Further, the GI50 was 1.84 µM (inactive) with MDA-MB-435; 1.3 µM (inactive) in the experiment with 786-0; 2.55 µM (inactive) in the experiment on NCI-H460; 2.67 µM (inactive) with CCRF-CEM; 3.27 µM (inactive) with SNB-19; 1.91 µM (inactive) in the experiment on HL-60. For the same compound, the GI50 was 2.09 µM with HCT-15; 2.43 µM (inactive) in the experiment with SK-OV-3; 1.42 µM (inactive) with SK-MEL-5; 2.51 µM (inactive) with SF-268; 2.32 µM (inactive) with U-251; 1.89 µM (inactive) in the experiment on SF-295. For the same compound, the GI50 with TK-10 is 1.77 µM (inactive); in the experiment with SK-MEL-28 it was 2.3 µM (inactive).

As to `COc1cc2c(cc1OC)C(SC)C(=O)N(Cc1cccc(OC)c1OC)CC2` (stereo not given), the GI50 in the experiment with MOLT-4 was 2.33 µM (inactive); in the experiment on UO-31 it was 6.47 µM (inactive); in the experiment with UACC-62, 0.731 µM (active); with Malme-3M, 3.15 µM (inactive); in the experiment on NCI-H23 it was 2.25 µM (inactive); in the experiment with M14, 2.28 µM (inactive). Also, the GI50 was 0.353 µM (active) in the experiment on MDA-MB-435; 3.85 µM (inactive) in the experiment on 786-0; 1.09 µM (active) in the experiment with NCI-H460; 3.61 µM (inactive) with CCRF-CEM; 8.75 µM (inactive) with SNB-19; 0.411 µM (active) in the experiment on HL-60. In addition, the GI50 in the experiment with HCT-15 was 0.718 µM; with SK-OV-3, 2.54 µM (inactive); in the experiment with SK-MEL-5, 0.703 µM (active); in the experiment on SF-268, 4.67 µM (inactive); with U-251, 2.02 µM (inactive); with SF-295, 0.63 µM (active). For the same compound, the values for the GI50 in the experiment with TK-10 and in the experiment on SK-MEL-28 were 5.62 µM (inactive) and 1.99 µM (inactive), respectively.

Take `COC(=O)c1cc(C(=CCC[C@H]2CC[C@@]3(C)C(CCC4C3CC[C@@]3(C)C4CC[C@@H]3C(C)CCCC(C)C)C2)c2cc(Cl)c(O)c(C(=O)OC)c2)cc(Cl)c1O` (stereo not given in full): the GI50 with MOLT-4, in the experiment with UO-31, in the experiment on UACC-62, in the experiment on Malme-3M, in the experiment on NCI-H23 and with M14 was > 10 µM (inactive) throughout. Besides, the GI50 in the experiment on MDA-MB-435, in the experiment with 786-0, in the experiment with NCI-H460, in the experiment on CCRF-CEM, in the experiment with SNB-19 and in the experiment on HL-60 was > 10 µM (inactive) in each case. Besides, the GI50 is greater than 10 µM in the experiment on HCT-15; > 10 µM (inactive) in the experiment with SK-OV-3; > 10 µM (inactive) with SK-MEL-5; > 10 µM (inactive) with SF-268; > 10 µM (inactive) in the experiment on U-251; > 10 µM (inactive) in the experiment on SF-295. The GI50 in the experiment with TK-10 and in the experiment on SK-MEL-28 was > 10 µM (inactive) in each case.

On to `Cc1ncc(CO)c(CN)c1O`, for which the GI50 in the experiment on MOLT-4, in the experiment with UO-31, with UACC-62, with Malme-3M, in the experiment on NCI-H23 and with M14 was > 100 µM (inactive) each time. Besides, the GI50 in the experiment with MDA-MB-435 is > 100 µM (inactive); in the experiment on 786-0, > 100 µM (inactive); in the experiment on NCI-H460, > 100 µM (inactive); with CCRF-CEM, > 100 µM (inactive); in the experiment on SNB-19 it was > 100 µM (inactive); in the experiment with HL-60, 41.9 µM (inactive). Besides, the GI50 in the experiment with HCT-15 is greater than 100 µM; in the experiment with SK-OV-3, > 100 µM (inactive); in the experiment with SK-MEL-5 it was > 100 µM (inactive); in the experiment on SF-268 it was > 100 µM (inactive); in the experiment with U-251, > 100 µM (inactive); with SF-295, > 100 µM (inactive). For the same compound, the GI50 in the experiment with TK-10 and in the experiment with SK-MEL-28 was > 100 µM (inactive) each time.

These data come from ChEMBL document CHEMBL1201862, “PubChem BioAssay data set” (2004).
